Test results from US9487519B2, “5,6-Dialkyl-7-aminotriazolopyrimidines, their preparation and their use for controlling harmful fungi, and compositions comprising these compounds” (BASF SE, priority 2004, dated 2016).

Legend:
Plasmopara viticola = experiment: Activity against Peronospora of grapevines caused by Plasmopara viticola (Use Example 1); type: in vivo; conditions: 250 ppm, potted vines sprayed to runoff, inoculated next day; untreated plants 95% infected
Protocol: The active compounds were prepared as a stock solution comprising 25 mg of active compound which was made up to 10 ml using a mixture of acetone and/or DMSO and the emulsifier Uniperol® EL (wetting agent having emulsifying and dispersing agent based on ethoxylated alkylphenols) in a ratio by volume of solvent/emulsifier of 99/1. The mixture was then made up to 100 ml with water. This stock solution was, using the solvent/emulsifier/water mixture described, diluted to the active compound concentration stated below.
Leaves of potted vines were sprayed to runoff point with an aqueous suspension having the concentration of active compound stated below. The next day, the undersides of the leaves were inoculated with an aqueous sporangia suspension of Plasmopara viticola. The vines were then initially placed in a water-vapor-saturated chamber at 24° C. for 48 hours and then in a greenhouse at temperatures between 20° C. and 30° C. for 5 days. After this time, the plants were once more placed in a humid chamber for 16 hours to promote the eruption of sporangiophores. The extent of the development of the infection on the undersides of the leaves was then determined visually.

Phytophthora infestans = type: in vivo; conditions: 250 ppm, potted tomato plants sprayed to runoff, infected next day, assessed after 6 days; untreated plants 100% infected

CCCCCCCCc1c(CC)nc2ncnn2c1N [I-2, 7-amino-5-ethyl-6-octyl[1,2,4]triazolo[1,5-a]pyrimidine]
infection on the undersides of the leaves, determined visually (Plasmopara viticola): no infection | infection (late blight), determined visually (Phytophthora infestans): no infection
